Results published in patent US20180193659A1, “PHOTODYNAMIC THERAPY LIGHT IRRADIATING DEVICE AND LIGHT IRRADIATING METHOD” (Public University Corporation Nagoya City University, priority 2015, published 2018).
Where two headings read alike, the source gives them in different places.

Key:
[1] = tested on: HaCaT cells (human skin keratinocyte cell line); test: Experimental Example 2: cell survival rate of 5-ALA-treated HaCaT cells after 635 nm irradiation under pulse width modulation; assay type: cell-based; settings: 1 mM 5-ALA, 12 J/cm^2, 125 kHz PWM, off time not more than 4 μs
Method: The irradiation was performed using a pulse width modulation control power supply (PWM power supply) with a frequency of 125 kHz capable of adjusting light using pulse width modulation at 256 modes as shown in FIG. 12. Specifically, in the condition (1), light irradiation was performed using pulse width modulation control in which the off time (t(off)) in pulse width modulation was 5.6 μs. In the condition (2), light irradiation was performed using pulse width modulation control in which the off time (t(off)) in pulse width modulation was 5.3 μs. In the condition (3), light irradiation was performed using pulse width modulation control in which the off time (t(off)) in pulse width modulation was 4.8 μs. In the condition (4), light irradiation was performed using pulse width modulation control in which the off time (t(off)) in pulse width modulation was 4.0 μs. In the condition (5), light irradiation was performed using pulse width modulation control in which the off time (t(off)) in pulse width modulation was 2.7 μs. In all the conditions (1) to (5), the pulse period (T) was 8 μs. In the condition (6), light irradiation in which the off time (t(off)) in pulse width modulation was 0 μs, that is, light irradiation that was continuous irradiation under the same condition as that in amplitude variable control was performed.

[2] = tested on: HaCaT cells (human skin keratinocyte cell line); settings: 1 mM 5-ALA; for PDT effect (1 - cell survival rate): 0.4 J/cm^2
Method: After 4 hours, the plurality of plates except for one plate were each subjected to five kinds of single-wavelength irradiation and four kinds of multiple-wavelength irradiation (specifically, two-wavelength irradiation) at respective amounts of irradiation of 0.2 J/cm^2, 0.4 J/cm^2, 0.6 J/cm^2, 0.8 J/cm^2, 1.0 J/cm^2, and 1.2 J/cm^2. Specifically, in the five kinds of single-wavelength irradiation, irradiation with each of light having a wavelength of 405 nm, light having a wavelength of 505 nm, light having a wavelength of 545 nm, light having a wavelength of 570 nm, and light having a wavelength of 635 nm was performed. The four kinds of multiple-wavelength irradiation with light in which the light having the wavelength of 405 nm and the light having the wavelength of 505 nm were combined, light in which the light having the wavelength of 405 nm and the light having the wavelength of 545 nm were combined, light in which the light having the wavelength of 405 nm and the light having the wavelength of 570 nm were combined, and light in which the light having the wavelength of 405 nm and the light having the wavelength of 635 nm were combined were performed. In the single-wavelength irradiation and the multiple-wavelength irradiation, as a light source of the light having the wavelength of 405 nm, an LED element in which the energy of light from the light source was 11 mW/cm^2 (irradiation distance: 100 mm) was used. […]
Subsequently, in the plurality of plates that had been irradiated with light and the plate that had not been irradiated with light, cultivation was performed over 18 hours. The cell survival rate was measured by an MTT assay using an XTT cell proliferation assay kit.
On the basis of the results of cell survival rate at an amount of irradiation of 0.4 J/cm^2, a therapeutic effect by a photodynamic therapy (hereinafter also referred to as “PDT effect”) was calculated by the following expression (1).
Herein, the cell survival rate reference value is a value calculated by the following expression (2). […]

NCC(=O)CCC(=O)O [5-ALA, δ-aminolevulinic acid]
PDT effect under pulse width modulation versus continuous irradiation [1]: the same as that in continuous irradiation | PDT effect, single-wavelength irradiation ([2]; 4 h, 405 nm compared with 505, 545, 570 and 635 nm): most excellent PDT effect | PDT effect (1 - cell survival rate) ([2]; 405 nm + 505 nm): excellent PDT effect is obtained | PDT effect (1 - cell survival rate) ([2]; 405 nm + any of 545, 570, 635 nm): sufficient PDT effect is not obtained
